The text below walks through data of patent US9789181B2, “PAN-DR binding polypeptides and uses thereof” (Epimmune Inc., priority 2009, dated 2017).

The term IC50 denotes the point on the concentration scale where inhibition reaches its midpoint.

The target in test [1] is HLA DRB1 *1501 (Homo sapiens, UniProt P01903+P01911). The test is described as follows: IC50nM to purified HLA | DRB1 *1501. As to the method:
(§1) Table printed on a drawing sheet, FIG. 1 (contd.)
Head of the field: IC50nM to purified HLA | DRB1 *1501
(§2) First copying reader's note: Continued from the preceding sheet of FIG. 1; decimal commas are used, the analog names give the substituted residues and positions in PADRE, and some values are printed in italics or bold and some SEQ ID NOs bold and underlined without a legend on this sheet.
Where the first naming reader finds the target: head: IC50nM to purified HLA | DRB1 *1501

Test [2] addresses HLA DRB1 *0701 (Homo sapiens, UniProt P01903+P01911, A100R/A102G/A103Q/D57E/D86V/E43K/F76Y/K127E/L162R/M171V/P40G/Q125H/Q99D/R33Q/R42Y/R54Q/S133A/S66F/T210M/V115G/Y107V/Y59L/Y89S). Put plainly: IC50nM to purified HLA | DRB1 *0701. The method, then: as §1
Head of the field: IC50nM to purified HLA | DRB1 *0701
as §2
Where the first naming reader finds the target: head: IC50nM to purified HLA | DRB1 *0701

Test [3] deals with HLA DRB1 *0404 (Homo sapiens, UniProt P01903+P01911, A100R/A169T/F76Y/I96L/K127E/L162R/M171V/N62H/P40V/Q125Y/R42H/S133A/S149N/S66Y/V209L/W38E). Put plainly: IC50nM to purified HLA | DRB1 *0404. The method, then: as §1
Head of the field: IC50nM to purified HLA | DRB1 *0404
as §2
Where the first naming reader finds the target: head: IC50nM to purified HLA | DRB1 *0404

In test [4] the target is HLA DRB1 *0301 (Homo sapiens, UniProt P01903+P01911, A100K/A102G/A103R/A169T/F55Y/I96L/K41T/L162R/M171V/P40S/Q125H/Q178H/Q39Y/R42S/S66N/T106N/T262R/W38E/Y61H). Put plainly: IC50nM to purified HLA | DRB1 *0301. The method, then:
as §1
Head of the field: IC50nM to purified HLA | DRB1 *0301
as §2
Where the first naming reader finds the target: head: IC50nM to purified HLA | DRB1 *0301

For test [5], the target named is HLA DRB1 *0405 (Homo sapiens, UniProt P01903+P01911, A100R/A169T/D86S/F76Y/I96L/K127E/L162R/M171V/N62H/P40V/Q125Y/R42H/S133A/S149N/S66Y/V115G/V209L/W38E). The test is described as follows: IC50nM to purified HLA | DRB1 *0405. As to the method:
as §1
Head of the field: IC50nM to purified HLA | DRB1 *0405
as §2
Where the first naming reader finds the target: head: IC50nM to purified HLA | DRB1 *0405

Test [6] addresses HLA DRB1 *0101 (Homo sapiens, UniProt P01903+P01911, A100R/D57E/F55L/F60I/F76Y/I96L/L162R/M171V/P40L/Q125E/R42F/V115G/Y59C). The test is described as follows: IC50nM to purified HLA | DRB1 *0101. As to the method:
as §1
Head of the field: IC50nM to purified HLA | DRB1 *0101
as §2
Where the first naming reader finds the target: head: IC50nM to purified HLA | DRB1 *0101

Test [7] has as its target HLA DRB4 *0101 (Homo sapiens, UniProt P01903+P13762, G164S). Put plainly: IC50nM to purified HLA | DRB4 *0101. The method, then: as §1
Head of the field: IC50nM to purified HLA | DRB4 *0101
as §2
Where the first naming reader finds the target: head: IC50nM to purified HLA | DRB4 *0101

Test [8] has as its target HLA DRB1 *1101 (Homo sapiens, UniProt P01903+P01911, A100R/A169T/A87E/I96F/K41T/L162R/M171V/P40S/Q125H/Q178H/Q39Y/Q99D/R42S/S66Y/T262R/V115G/W38E). The test is described as follows: IC50nM to purified HLA | DRB1 *1101. As to the method: as §1
Head of the field: IC50nM to purified HLA | DRB1 *1101
as §2
Where the first naming reader finds the target: head: IC50nM to purified HLA | DRB1 *1101

In test [9] the target is HLA DRB1 *0401 (Homo sapiens, UniProt P01903+P01911, A100K/A169T/F76Y/I96L/K127E/L162R/M171V/N62H/P40V/Q125Y/R42H/S133A/S149N/S66Y/V115G/V209L/W38E). Put plainly: IC50nM to purified HLA | DRB1 *0401. As to the method: as §1
Head of the field: IC50nM to purified HLA | DRB1 *0401
as §2
Where the first naming reader finds the target: head: IC50nM to purified HLA | DRB1 *0401

Test [10] addresses HLA DRB5 *0101 (Homo sapiens, UniProt P01903+Q30154). Put plainly: IC50nM to purified HLA | DRB5 *0101. As to the method: as §1
Head of the field: IC50nM to purified HLA | DRB5 *0101
as §2
Where the first naming reader finds the target: head: IC50nM to purified HLA | DRB5 *0101

Test [11] addresses HLA DRB1 *0802 (Homo sapiens, UniProt P01903+P01911, A100R/A103L/A169T/F76Y/H45Y/I96F/K41T/L162R/M171V/P40S/Q125H/Q178H/Q39Y/Q99D/R218S/R42G/S66Y/V115G/W38E). The test is described as follows: IC50nM to purified HLA | DRB1 *0802. The method, then: as §1
Head of the field: IC50nM to purified HLA | DRB1 *0802
as §2
Where the first naming reader finds the target: head: IC50nM to purified HLA | DRB1 *0802

Test [12] addresses HLA DRB1 *0901 (Homo sapiens, UniProt P01903+P01911, A100R/A103E/D57H/D86V/F55Y/F60I/F76Y/I96F/K127E/L162R/M171V/P40D/Q125H/Q99R/R33Q/R42F/S133A/S66N/T210M/V115G/W38K/Y107V/Y59G/Y89S). Put plainly: IC50nM to purified HLA | DRB1 *0901. As to the method:
as §1
Head of the field: IC50nM to purified HLA | DRB1 *0901
as §2
Where the first naming reader finds the target: head: IC50nM to purified HLA | DRB1 *0901

Test [13] addresses HLA DRB1 *1302 (Homo sapiens, UniProt P01903+P01911, A100E/A169T/K41T/L162R/M171V/P40S/Q125H/Q178H/Q39Y/Q99D/R42S/S66N/T262R/V115G/W38E/Y61H). The test is described as follows: IC50nM to purified HLA | DRB1 *1302. As to the method: as §1
Head of the field: IC50nM to purified HLA | DRB1 *1302
as §2
Where the first naming reader finds the target: head: IC50nM to purified HLA | DRB1 *1302

Where no end group is shown, it is not given here.

Chain of HLA DRB1 *1101 (P01903 26-254 limits assumed, other chains not shown): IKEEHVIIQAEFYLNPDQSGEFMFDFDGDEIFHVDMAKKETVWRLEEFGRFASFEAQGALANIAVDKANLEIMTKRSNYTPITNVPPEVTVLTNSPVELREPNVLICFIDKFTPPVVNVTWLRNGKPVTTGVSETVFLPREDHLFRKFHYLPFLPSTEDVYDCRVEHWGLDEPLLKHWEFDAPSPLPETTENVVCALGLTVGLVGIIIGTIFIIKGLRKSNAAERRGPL
Chain of HLA DRB1 *1302 (P01903 26-254 limits assumed, other chains not shown): as above
Chain of HLA DRB4 *0101 (P01903 26-254 limits assumed): as the sequence (P01903 26-254 limits assumed, other chains not shown) above
Chain of HLA DRB4 *0101 (P13762 whole entry G164S): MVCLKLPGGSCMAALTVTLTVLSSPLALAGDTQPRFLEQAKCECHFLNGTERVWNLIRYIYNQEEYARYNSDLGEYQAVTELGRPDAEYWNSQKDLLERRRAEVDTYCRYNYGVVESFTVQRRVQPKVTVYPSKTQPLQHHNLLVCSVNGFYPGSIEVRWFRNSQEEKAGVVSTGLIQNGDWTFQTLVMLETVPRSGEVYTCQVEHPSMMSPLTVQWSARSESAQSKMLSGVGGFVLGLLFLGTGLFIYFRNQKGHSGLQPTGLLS
Chain of HLA DRB1 *0301 (P01903 26-254 limits assumed, other chains not shown): as the sequence (P01903 26-254 limits assumed, other chains not shown) above

As for AAADFVAAFTLHAAA [SEQ ID NO: 43], the IC50 in test [1] turned out to be 0.097 µM; in [2] it was 0.223 µM; in [3] it was 0.0037 µM; in [4], 0.746 µM; in test [5], 0.011 µM; in test [6] it was 0.0073 µM. The IC50 worked out at 1.05 µM in test [7], 0.044 µM in test [8] and 0.0047 µM in [9].

Take AAADFVAANTLHAAA [SEQ ID NO: 44]: the IC50 in test [10] was found to be 0.08 µM; in test [1] it was 0.58 µM; in test [11], 0.044 µM; in test [2], 0.196 µM; in [12] it was 0.082 µM; in test [13], 0.187 µM. For the same sequence, the IC50 in test [3] stood at 0.0086 µM; in test [4], 0.731 µM; in [6] it was 0.0078 µM; in test [9], 0.0066 µM.

Take AAADFVAAWTLHAAA [SEQ ID NO: 41]: the IC50 in test [1] worked out at 0.089 µM; in test [11], 0.024 µM; in test [2], 0.152 µM; in [12], 0.04 µM; in test [3], 0.0071 µM; in [4], 0.249 µM. Also, the IC50 in test [5] was 0.027 µM; in test [6] it was 0.0049 µM; in test [8], 0.028 µM; in test [9], 0.0053 µM.

As for AAADFVAAWTLKAAA [SEQ ID NO: 40], the IC50 in test [1] is 0.064 µM; in [11], 0.017 µM; in [2], 0.195 µM; in test [13], 4 µM; in [3], 0.004 µM; in [4], 0.33 µM. For the same sequence, the IC50 in [5] was 0.03 µM; in test [6], 0.007 µM; in test [7], 1.54 µM; in [8] it was 0.019 µM; in test [9] it was 0.0051 µM.

As to AAADFVAAYTLHAAA [SEQ ID NO: 42], the IC50 turned out to be 0.019 µM in [1]; 0.014 µM in [11]; 0.182 µM in [2]; 0.032 µM in test [12]; 0.0053 µM in test [3]; 0.286 µM in test [4]. The IC50 in test [5] came to 0.021 µM; in test [6] it was 0.0048 µM; in test [8], 0.04 µM; in [9], 0.0045 µM.

Regarding AAAEFVAAFTLHAAA [SEQ ID NO: 48], the IC50 in test [1] is 0.05 µM; in [11], 0.019 µM; in [2], 0.14 µM; in test [12] it was 0.018 µM; in [13] it was 2.02 µM; in [3], 0.0026 µM. Besides, the half-maximal inhibitory concentration (IC50) in [5] stood at 0.014 µM; in [6], 0.0061 µM; in test [7], 0.132 µM; in test [8], 0.048 µM; in test [9], 0.0021 µM.

With AAAEFVAAWTLHAAA [SEQ ID NO: 46], the IC50 in test [10] was found to be 0.048 µM; in test [11] it was 0.024 µM; in [2], 0.097 µM; in test [12], 0.044 µM; in test [13] it was 1.15 µM; in test [3] it was 0.0041 µM. Moreover, the IC50 in test [4] turned out to be 0.134 µM; in test [5], 0.027 µM; in [8] it was 0.038 µM; in [9], 0.0031 µM.

With AAAEFVAAYTLHAAA [SEQ ID NO: 47], the IC50 in [10] is 0.052 µM; in test [1], 0.0069 µM; in test [11], 0.013 µM; in test [2] it was 0.161 µM; in test [12], 0.028 µM; in [13], 1.45 µM. The IC50 in [3] was 0.0032 µM; in test [4] it was 0.144 µM; in test [5] it was 0.017 µM; in test [6], 0.0039 µM; in [7] it was 0.448 µM; in [8] it was 0.027 µM. The same sequence came in with an IC50 in test [9] of 0.0023 µM.

Regarding AAAHFVAAFTLKADA [SEQ ID NO: 33], the IC50 in test [1] was determined as 0.037 µM; in [2] it was 0.083 µM; in test [12], 0.03 µM; in [13] it was 0.594 µM; in test [3], 0.0095 µM; in test [5], 0.019 µM. Also, the IC50 is 0.0067 µM in [6], 0.948 µM in test [7], 0.076 µM in test [8] and 0.015 µM in test [9].

AAAHFVAANTLKADA [SEQ ID NO: 34]: the IC50 came to 0.018 µM in [10]; 0.172 µM in test [1]; 0.067 µM in test [11]; 0.088 µM in [2]; 0.06 µM in test [12]; 0.013 µM in test [3]. Also, the IC50 in test [4] stood at 3.12 µM; in test [5], 0.036 µM; in test [8], 0.091 µM; in [9], 0.021 µM.

Turning to AAAHFVAANTLKAEA [SEQ ID NO: 39], the IC50 in test [11] is 0.064 µM; in [2] it was 0.083 µM; in test [13], 0.234 µM; in test [3] it was 0.014 µM; in test [5], 0.036 µM; in test [6], 0.0071 µM. For the same sequence, the IC50 in [7] is 0.941 µM; in [9] it was 0.012 µM.

For the sequence AAAHFVAAYTLKADA [SEQ ID NO: 32], the IC50 in [10] was determined as 0.017 µM; in test [1] it was 0.011 µM; in test [2], 0.048 µM; in [12], 0.031 µM; in test [3], 0.0096 µM; in test [6], 0.0054 µM. For the same sequence, in test [9], the IC50 is 0.011 µM.

Regarding AAANFVAAYTLHAAA [SEQ ID NO: 52], the IC50 is 0.0042 µM in test [1]; 0.067 µM in test [2]; 1.42 µM in test [13]; 0.171 µM in test [4]; 0.019 µM in test [5]; 0.0027 µM in test [6]. In test [8], this sequence had an IC50 of 0.016 µM.
